Where two headings read alike, the source gives them in different places.
Assays:
[1] = Lipid peroxidation inhibition (LPI) assay; parameters: species or system bovine; settings: sodium nitroprusside as pro-oxidant, 37 °C 2 h, MDA at 532 nm
[2] = Nitric oxide (NO) radical-scavenging assay; settings: sodium nitroprusside, 2.5 h 25 °C, Griess reagent, 540 nm
[3] = ABTS radical-scavenging assay; settings: 5 min in the dark, 750 nm
[4] = target: T1, human butyrylcholinesterase (hBuChE) (Homo sapiens, UniProt P06276); experiment: biochemical
T1 construct: purchased Sigma B4186
T1 sequence (P06276 29-602): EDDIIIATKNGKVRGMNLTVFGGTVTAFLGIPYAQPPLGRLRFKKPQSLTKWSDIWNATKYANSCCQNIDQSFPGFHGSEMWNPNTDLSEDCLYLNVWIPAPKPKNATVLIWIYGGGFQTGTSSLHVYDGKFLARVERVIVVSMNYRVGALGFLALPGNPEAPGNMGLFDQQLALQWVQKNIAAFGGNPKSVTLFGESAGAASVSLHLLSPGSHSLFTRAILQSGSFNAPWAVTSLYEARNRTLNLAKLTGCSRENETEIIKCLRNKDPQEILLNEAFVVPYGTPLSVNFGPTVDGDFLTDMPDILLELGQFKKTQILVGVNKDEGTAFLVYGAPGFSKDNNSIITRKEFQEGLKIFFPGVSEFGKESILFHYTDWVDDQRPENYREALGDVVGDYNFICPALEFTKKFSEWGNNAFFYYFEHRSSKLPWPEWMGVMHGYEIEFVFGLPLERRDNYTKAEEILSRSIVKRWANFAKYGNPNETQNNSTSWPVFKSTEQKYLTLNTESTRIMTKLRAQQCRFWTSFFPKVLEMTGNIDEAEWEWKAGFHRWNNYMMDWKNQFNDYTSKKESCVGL

hAChE = system: hAChE; parameters: method as in PMID 32746727; settings: ref [59]; read-out: IC50 against hAChE; cited from earlier work
[5] = target: T2, butyrylcholinesterase from horse (equine) serum (esBuChE) (Equus caballus, UniProt P81908); experiment: biochemical
T2 construct: butyrylcholinesterase from horse (equine) serum (esBuChE); purchased Sigma C7512; host or cells: horse serum
T2 sequence (P81908 whole entry): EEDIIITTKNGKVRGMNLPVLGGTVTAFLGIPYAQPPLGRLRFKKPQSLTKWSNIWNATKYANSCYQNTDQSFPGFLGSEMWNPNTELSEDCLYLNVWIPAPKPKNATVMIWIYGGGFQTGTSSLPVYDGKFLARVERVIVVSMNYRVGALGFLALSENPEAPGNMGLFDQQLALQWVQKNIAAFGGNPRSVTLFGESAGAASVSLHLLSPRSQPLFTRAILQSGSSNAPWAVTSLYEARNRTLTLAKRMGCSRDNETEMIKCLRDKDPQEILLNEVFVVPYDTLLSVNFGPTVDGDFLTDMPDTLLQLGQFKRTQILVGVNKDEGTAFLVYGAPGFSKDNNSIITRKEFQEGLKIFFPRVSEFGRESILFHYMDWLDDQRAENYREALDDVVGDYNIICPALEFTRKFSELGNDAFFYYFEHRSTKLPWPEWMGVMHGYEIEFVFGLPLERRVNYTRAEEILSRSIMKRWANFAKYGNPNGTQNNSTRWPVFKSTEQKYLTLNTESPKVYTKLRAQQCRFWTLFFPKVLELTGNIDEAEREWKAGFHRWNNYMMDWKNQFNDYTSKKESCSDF

[6] = target: human acetylcholinesterase (hAChE) (Homo sapiens, UniProt P22303); experiment: biochemical
human acetylcholinesterase (hAChE), sequence (P22303 32-614): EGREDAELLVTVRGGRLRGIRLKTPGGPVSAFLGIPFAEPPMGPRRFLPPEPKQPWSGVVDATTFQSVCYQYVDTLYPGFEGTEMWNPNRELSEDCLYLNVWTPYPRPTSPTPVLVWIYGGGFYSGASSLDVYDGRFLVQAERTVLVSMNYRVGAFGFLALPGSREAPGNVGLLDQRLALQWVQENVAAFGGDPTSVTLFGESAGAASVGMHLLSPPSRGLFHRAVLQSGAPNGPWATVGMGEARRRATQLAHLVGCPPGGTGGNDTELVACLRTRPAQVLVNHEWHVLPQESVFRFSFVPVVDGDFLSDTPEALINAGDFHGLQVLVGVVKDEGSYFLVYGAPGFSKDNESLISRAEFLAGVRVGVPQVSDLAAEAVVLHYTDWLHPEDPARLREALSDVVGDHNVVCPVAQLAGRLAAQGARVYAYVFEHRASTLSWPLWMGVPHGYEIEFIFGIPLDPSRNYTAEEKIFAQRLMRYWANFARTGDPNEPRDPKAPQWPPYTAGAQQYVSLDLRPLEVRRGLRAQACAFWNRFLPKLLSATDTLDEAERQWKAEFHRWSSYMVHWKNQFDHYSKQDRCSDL

[7] = Hydroxyl radical-scavenging assay; settings: Fenton reaction, 45 min 37 °C, 532 nm
[8] = DPPH free radical-scavenging assay; settings: 37 °C, 40 min, 517 nm
[9] = Ferric reducing antioxidant power (FRAP) assay; settings: 700 nm
[10] = ref [62]; read-out: IC50 values, panel of antioxidant assays; cited from earlier work
BuChE [11] = settings: rat brain homogenates, in vitro; ref [62]; cited from earlier work
AChE [12] = settings: rat brain homogenates, in vitro; ref [62]; cited from earlier work
BuChE [13] = settings: ref [55],[56],[57]; cited from earlier work
AChE [14] = settings: ref [55],[56],[57]; cited from earlier work

SMILES	EC50 [1] [µM]	EC50 [2] [µM]	EC50 [3] [µM]	IC50 ([6]; read-out: Enzyme IC50 hAChE) [µM]	EC50 [7] [µM]	EC50 [8] [µM]	EC50 [9] [µM]	IC50 [4] [µM]	IC50 [5] [µM]	other results
O=C1O[C@H]([C@@H](O)CO)C(O)=C1O [L-Ascorbic acid, L-ascorbic acid, reference compound]	182 ± 24	720 ± 127	526 ± 110							
O=C(/C=C/c1ccc(O)c(O)c1)O[C@@H]1C[C@](O)(C(=O)O)C[C@@H](O)[C@H]1O [Chlorogenic acid]				> 1000						IC50 ([4]; read-out: Enzyme IC50 hBuChE): > 1000 µM; IC50 (hAChE): 410 µM; IC50 ([5]; read-out: Enzyme IC50 esBuChE): > 1000 µM
Cc1c(C)c2c(c(C)c1O)CC[C@@](C)(CCC[C@H](C)CCC[C@H](C)CCCC(C)C)O2 [α-Tocopherol, α-tocopherol, reference compound]		368 ± 34	414 ± 22		53 ± 15	369 ± 34				
O=C(O)c1cc(O)c(O)c(O)c1 [Gallic acid, reference compound]	372 ± 33	972 ± 107	53 ± 15		80 ± 23	86 ± 15	1240 ± 49			
O=C(C=Cc1ccc(O)c(O)c1)OC1C(O)CC(O)(C(=O)O)CC1O (stereo not drawn) [4-O-caffeoylquinic acid]	207 ± 63	125 ± 30	382 ± 44	782 ± 106	120 ± 30	431 ± 28	1290 ± 45			IC50 ([4]; read-out: Enzyme IC50 hBuChE): 770 ± 116 µM; IC50 ([5]; read-out: Enzyme IC50 esBuChE): 903 ± 139 µM
O=c1c(O[C@@H]2O[C@H](CO)[C@@H](O)[C@H](O)[C@H]2O)c(-c2ccc(O)c(O)c2)oc2cc(O)cc(O)c12 [Quercetin 3-β-D-glucoside, quercetin 3-β-D-glucoside]	673 ± 165	261 ± 77	436 ± 32	971 ± 157	55 ± 12	224 ± 27	1780 ± 107	931 ± 49	> 1000	
C[C@@H]1O[C@@H](OC[C@H]2O[C@@H](Oc3c(-c4ccc(O)c(O)c4)oc4cc(O)cc(O)c4c3=O)[C@H](O)[C@@H](O)[C@@H]2O)[C@H](O)[C@H](O)[C@H]1O [Rutin, quercetin-3-rutinoside]	26 ± 3	383 ± 87	1720 ± 206		90 ± 21	305 ± 55	1940 ± 131	761 ± 106	> 1000	IC50 [10]: 184 to 938 µM; IC50 (BuChE [11]): 288 µM; IC50 [6]: > 1000 µM; IC50 (AChE [12]): 219 µM
CCN(CC)C(C)CN1c2ccccc2Sc2ccccc21 (stereo not drawn) [Ethopropazine, reference compound]								13.8 ± 0.8	0.01	

From article PMC12467246, “Characterization of the Anticholinesterase and Antioxidant Properties of Phytochemicals from Moringa oleifera as a Potential Treatment for Alzheimer’s Disease” (Biomedicines, 2025)
